Data as given in ChEMBL document CHEMBL5291721, “A preclinical secondary pharmacology resource illuminates target-adverse drug reaction associations of marketed drugs” (Nat Commun, 2023).

Columns and labels:
Adenosine receptor A1 = target: T1, Adenosine receptor A1 (Homo sapiens, UniProt P30542)
T1 sequence (P30542 whole entry): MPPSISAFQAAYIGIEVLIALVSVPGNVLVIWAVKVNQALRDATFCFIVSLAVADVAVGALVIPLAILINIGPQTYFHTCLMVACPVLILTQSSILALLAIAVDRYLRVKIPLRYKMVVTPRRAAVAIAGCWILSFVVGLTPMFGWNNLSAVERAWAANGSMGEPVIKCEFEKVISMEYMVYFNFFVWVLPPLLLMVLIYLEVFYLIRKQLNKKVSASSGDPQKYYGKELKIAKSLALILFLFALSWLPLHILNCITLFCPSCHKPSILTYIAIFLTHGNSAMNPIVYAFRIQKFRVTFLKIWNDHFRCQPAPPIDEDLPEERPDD

D(1A) dopamine receptor = D(1A) dopamine receptor (Homo sapiens, UniProt P21728); assay type: functional, cell-based
[1] = target: T2, Prostaglandin G/H synthase 1 (Rattus norvegicus, UniProt Q63921); assay type: functional
T2 sequence (Q63921 whole entry): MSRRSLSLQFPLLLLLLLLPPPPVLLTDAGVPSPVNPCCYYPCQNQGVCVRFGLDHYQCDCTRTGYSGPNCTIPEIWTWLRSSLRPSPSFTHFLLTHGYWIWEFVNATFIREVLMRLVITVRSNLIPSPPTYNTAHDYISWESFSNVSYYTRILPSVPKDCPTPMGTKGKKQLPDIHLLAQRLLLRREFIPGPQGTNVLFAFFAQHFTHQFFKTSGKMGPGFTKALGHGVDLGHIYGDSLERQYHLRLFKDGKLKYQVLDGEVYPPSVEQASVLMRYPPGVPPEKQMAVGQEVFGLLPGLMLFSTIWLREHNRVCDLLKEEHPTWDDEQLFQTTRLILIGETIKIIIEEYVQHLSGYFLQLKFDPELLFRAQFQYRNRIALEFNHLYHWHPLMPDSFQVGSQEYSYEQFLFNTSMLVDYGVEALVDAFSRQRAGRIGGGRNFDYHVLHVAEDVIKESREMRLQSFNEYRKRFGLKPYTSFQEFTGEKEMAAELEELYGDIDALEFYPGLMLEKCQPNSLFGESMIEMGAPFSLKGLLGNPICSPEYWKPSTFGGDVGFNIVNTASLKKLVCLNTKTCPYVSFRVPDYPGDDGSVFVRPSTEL

D(3) dopamine receptor = D(3) dopamine receptor (Homo sapiens, UniProt P35462)
[2] = target: T3, Alpha-1A adrenergic receptor (Homo sapiens, UniProt P35348); assay type: functional, cell-based
T3 sequence (P35348 whole entry): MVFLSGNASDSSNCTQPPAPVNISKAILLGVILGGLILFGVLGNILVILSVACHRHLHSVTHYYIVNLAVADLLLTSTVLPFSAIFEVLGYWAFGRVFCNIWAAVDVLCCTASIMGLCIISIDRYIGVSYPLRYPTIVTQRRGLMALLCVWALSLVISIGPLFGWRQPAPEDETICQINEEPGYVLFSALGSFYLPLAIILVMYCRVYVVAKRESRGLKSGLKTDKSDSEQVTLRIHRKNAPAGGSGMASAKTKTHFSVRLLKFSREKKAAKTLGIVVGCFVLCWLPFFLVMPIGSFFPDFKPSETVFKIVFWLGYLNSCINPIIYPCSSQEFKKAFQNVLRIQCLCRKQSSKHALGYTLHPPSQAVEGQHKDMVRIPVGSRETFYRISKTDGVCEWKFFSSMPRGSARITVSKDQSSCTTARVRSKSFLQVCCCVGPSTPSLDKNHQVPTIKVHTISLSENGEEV

[3] = target: Prostaglandin G/H synthase 1 (Homo sapiens, UniProt P23219); assay type: functional
Also: assay procedure not described here.

Chain of Prostaglandin G/H synthase 1 (Homo sapiens, UniProt P23219) (P23219 whole entry): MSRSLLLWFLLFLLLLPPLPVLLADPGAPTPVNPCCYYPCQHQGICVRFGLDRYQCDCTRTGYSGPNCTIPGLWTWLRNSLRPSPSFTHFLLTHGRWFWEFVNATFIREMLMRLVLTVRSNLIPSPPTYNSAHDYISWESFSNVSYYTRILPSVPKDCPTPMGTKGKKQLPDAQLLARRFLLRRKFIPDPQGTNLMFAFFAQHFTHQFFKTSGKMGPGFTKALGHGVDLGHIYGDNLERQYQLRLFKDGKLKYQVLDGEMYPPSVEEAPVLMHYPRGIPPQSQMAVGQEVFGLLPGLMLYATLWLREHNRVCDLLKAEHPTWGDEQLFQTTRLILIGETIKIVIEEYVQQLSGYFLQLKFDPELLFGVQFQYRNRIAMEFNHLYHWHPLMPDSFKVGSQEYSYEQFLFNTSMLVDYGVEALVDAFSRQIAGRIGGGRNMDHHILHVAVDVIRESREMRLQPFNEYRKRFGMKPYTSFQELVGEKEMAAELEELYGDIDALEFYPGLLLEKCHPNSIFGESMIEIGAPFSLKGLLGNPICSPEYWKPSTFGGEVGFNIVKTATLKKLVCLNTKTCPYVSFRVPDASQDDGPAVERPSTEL
Chain of D(3) dopamine receptor (P35462 whole entry): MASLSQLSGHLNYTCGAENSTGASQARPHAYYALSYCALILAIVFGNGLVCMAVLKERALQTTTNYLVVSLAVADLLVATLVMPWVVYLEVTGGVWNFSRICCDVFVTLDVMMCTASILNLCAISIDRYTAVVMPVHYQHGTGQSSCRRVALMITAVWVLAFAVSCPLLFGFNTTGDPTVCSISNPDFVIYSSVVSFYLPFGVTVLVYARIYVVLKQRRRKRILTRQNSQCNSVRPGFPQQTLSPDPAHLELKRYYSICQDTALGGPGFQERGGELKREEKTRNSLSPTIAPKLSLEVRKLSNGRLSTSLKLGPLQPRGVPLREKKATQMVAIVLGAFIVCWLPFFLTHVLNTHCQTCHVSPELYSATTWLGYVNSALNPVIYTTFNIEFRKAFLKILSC
Chain of D(1A) dopamine receptor (P21728 whole entry): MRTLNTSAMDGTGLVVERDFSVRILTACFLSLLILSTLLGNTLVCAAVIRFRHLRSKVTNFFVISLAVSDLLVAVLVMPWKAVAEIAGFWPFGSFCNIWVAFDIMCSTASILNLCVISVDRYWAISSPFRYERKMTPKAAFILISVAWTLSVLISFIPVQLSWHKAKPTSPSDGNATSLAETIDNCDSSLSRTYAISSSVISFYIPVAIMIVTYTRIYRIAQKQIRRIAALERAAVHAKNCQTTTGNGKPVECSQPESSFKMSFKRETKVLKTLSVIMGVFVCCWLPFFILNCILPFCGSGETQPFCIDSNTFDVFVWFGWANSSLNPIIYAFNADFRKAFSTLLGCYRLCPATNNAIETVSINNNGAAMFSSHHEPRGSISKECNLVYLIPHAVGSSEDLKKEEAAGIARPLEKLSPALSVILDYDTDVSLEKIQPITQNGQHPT

SMILES	AC50 (Adenosine receptor A1)	AC50 (D(1A) dopamine receptor)	AC50 [1]	AC50 (D(3) dopamine receptor)	AC50 [2]	AC50 [3]
CN(C)CCCN1c2ccccc2CCc2ccccc21 [IMIPRAMINE]	> 30 µM	> 10 µM	> 30 µM	0.41 µM	–	–
CCOC(=O)C1=C(C)NC(C)=C(C(=O)OCC)C1c1ccccc1/C=C/C(=O)OC(C)(C)C [LACIDIPINE]	> 30 µM	> 30 µM	> 30 µM	> 30 µM	–	–
CCC[C@@H]1C[C@@H](C(=O)N[C@@H]([C@H]2O[C@H](SC)[C@H](O)[C@@H](O)[C@H]2O)[C@@H](C)O)N(C)C1 [LINCOMYCIN]	> 10 µM	> 10 µM	> 10 µM	> 30 µM	–	–
COC(=O)C1=C(C)NC(C)=C(C(=O)OCCN2CCN(C(c3ccccc3)c3ccccc3)CC2)C1c1cccc([N+](=O)[O-])c1 (stereo unspecified) [MANIDIPINE 6300]	> 30 µM	> 30 µM	7.4 µM	6.3 µM	–	–
C=C1c2cccc(O)c2C(=O)C2=C(O)[C@]3(O)C(=O)C(C(N)=O)=C(O)[C@@H](N(C)C)[C@@H]3[C@@H](O)[C@H]12 [METHACYCLINE]	> 30 µM	> 10 µM	> 30 µM	> 30 µM	–	–
CN(Cc1cnc2nc(N)nc(N)c2n1)c1ccc(C(=O)N[C@@H](CCC(=O)O)C(=O)O)cc1 [METHOTREXATE]	> 30 µM	> 10 µM	> 30 µM	> 30 µM	–	–
Cc1ccccc1N1C(=O)c2cc(S(N)(=O)=O)c(Cl)cc2NC1C (stereo unspecified) [METOLAZONE]	> 10 µM	> 10 µM	> 10 µM	> 30 µM	–	–
O=C(O)c1cccnc1Nc1cccc(C(F)(F)F)c1 [NIFLUMIC ACID]	> 10 µM	> 10 µM	30 µM	> 30 µM	–	–
O=C1c2cccc3c2[C@H](CCC3)CN1[C@@H]1CN2CCC1CC2 [PALONOSETRON]	> 30 µM	> 30 µM	> 30 µM	29 µM	–	–
OC[C@H]1O[C@@H](n2cnc3c2NC=NC[C@H]3O)C[C@@H]1O [PENTOSTATIN]	0.41 µM	> 30 µM	6.6 µM	> 30 µM	–	–
NNCCc1ccccc1 [PHENELZINE]	–	–	–	–	> 1 µM	0.5 µM
O=C1c2ccccc2C(=O)C1c1ccccc1 [PHENINDIONE]	> 10 µM	> 10 µM	> 10 µM	> 30 µM	–	–
Cc1cccc(C)c1NC(=O)CC12CCCN1CCC2 [PILSICAINIDE]	> 30 µM	> 30 µM	> 30 µM	> 30 µM	–	–
CC(C)c1cccc(C(C)C)c1O [PROPOFOL]	> 30 µM	> 30 µM	> 3 µM	> 30 µM	–	–
CN[C@@H](C)[C@@H](O)c1ccccc1 [PSEUDOEPHEDRINE]	> 30 µM	> 10 µM	> 30 µM	> 10 µM	–	–
CCCN1CC(NS(=O)(=O)N(CC)CC)CC2Cc3c(O)cccc3CC21 (stereo unspecified) [QUINAGOLIDE]	> 30 µM	0.15 µM	> 30 µM	0.0028 µM	–	–
C[C@]12CCC(=O)C[C@@H]1CC[C@@H]1[C@@H]2CC[C@]2(C)[C@@H](O)CC[C@@H]12 [STANOLONE]	> 30 µM	> 30 µM	> 30 µM	> 30 µM	–	–
O=C1OC(OC(=O)c2cccnc2Nc2cccc(C(F)(F)F)c2)c2ccccc21 (stereo unspecified) [TALNIFLUMATE]	> 30 µM	> 30 µM	> 30 µM	> 30 µM	–	–
C[C@]12C=CC(=O)C=C1CC[C@@H]1[C@@H]2CC[C@]2(C)OC(=O)CC[C@@H]12 [TESTOLACTONE]	> 10 µM	> 10 µM	> 10 µM	> 30 µM	–	–
Cc1ccc(C(=O)C(C)CN2CCCCC2)cc1 (stereo unspecified) [TOLPERISONE]	–	–	–	–	> 30 µM	> 30 µM
COc1ccc2c(C(=S)N(C)CC(=O)O)cccc2c1C(F)(F)F [TOLRESTAT]	–	–	–	–	–	> 30 µM
CCOC(=O)c1c(CSc2ccccc2)n(C)c2cc(Br)c(O)c(CN(C)C)c12 [UMIFENOVIR]	> 30 µM	> 30 µM	19 µM	6.8 µM	–	–
